The numbers were not newly measured in patent US20230292757A1, “SYNERGISTIC AGROCHEMICAL COMPOSITION COMPRISING DIAMIDES AND PLANT GROWTH REGULATORS” (priority 2020, published 2023), which cites them from elsewhere.

The subject of data set [1] is L. migratoria. The following applies: oral.
The test system of data set [2] is S. littoralis. Particulars: oral.

For the molecule `C=C1C[C@]23C[C@@]1(O)CC[C@H]2[C@@]12C=C[C@H](O)[C@@](C)(C(=O)O1)[C@H]2[C@@H]3C(=O)O` [Gibberellic acid (GA3), Gibberellic acid], the food consumption result in data set [1] and in data set [2] was “significant reduction” throughout.
